Eight compounds from ChEMBL document CHEMBL2062364, “Discovery and optimization of new benzimidazole- and benzoxazole-pyrimidone selective PI3Kβ inhibitors for the treatment of phosphatase and TENsin homologue (PTEN)-deficient cancers” (J Med Chem, 2012) can be followed below.

pIC50: −log10 of the molar value. Values after ≈ are worked out from the molar mass of the structure shown.

Data set [1] is described as follows: Drug metabolism in mouse liver microsomes. The class given is ADME, Microsome. To be noted: read-out: Drug metabolism.
Data set [2] deals with T1, Phosphatidylinositol 4,5-bisphosphate 3-kinase catalytic subunit beta isoform (Homo sapiens, UniProt P42338). As to the kind of experiment: Inhibition of N-terminus poly-His tagged human PI3Kbeta expressed in baculovirus infected insect […] cells coexpressing p85alpha using PI(4,5)P2 as substrate preincubated with compound for 15 mins measured after 10 mins by HTRF assay.
T1 sequence (P42338 whole entry, canonical isoform): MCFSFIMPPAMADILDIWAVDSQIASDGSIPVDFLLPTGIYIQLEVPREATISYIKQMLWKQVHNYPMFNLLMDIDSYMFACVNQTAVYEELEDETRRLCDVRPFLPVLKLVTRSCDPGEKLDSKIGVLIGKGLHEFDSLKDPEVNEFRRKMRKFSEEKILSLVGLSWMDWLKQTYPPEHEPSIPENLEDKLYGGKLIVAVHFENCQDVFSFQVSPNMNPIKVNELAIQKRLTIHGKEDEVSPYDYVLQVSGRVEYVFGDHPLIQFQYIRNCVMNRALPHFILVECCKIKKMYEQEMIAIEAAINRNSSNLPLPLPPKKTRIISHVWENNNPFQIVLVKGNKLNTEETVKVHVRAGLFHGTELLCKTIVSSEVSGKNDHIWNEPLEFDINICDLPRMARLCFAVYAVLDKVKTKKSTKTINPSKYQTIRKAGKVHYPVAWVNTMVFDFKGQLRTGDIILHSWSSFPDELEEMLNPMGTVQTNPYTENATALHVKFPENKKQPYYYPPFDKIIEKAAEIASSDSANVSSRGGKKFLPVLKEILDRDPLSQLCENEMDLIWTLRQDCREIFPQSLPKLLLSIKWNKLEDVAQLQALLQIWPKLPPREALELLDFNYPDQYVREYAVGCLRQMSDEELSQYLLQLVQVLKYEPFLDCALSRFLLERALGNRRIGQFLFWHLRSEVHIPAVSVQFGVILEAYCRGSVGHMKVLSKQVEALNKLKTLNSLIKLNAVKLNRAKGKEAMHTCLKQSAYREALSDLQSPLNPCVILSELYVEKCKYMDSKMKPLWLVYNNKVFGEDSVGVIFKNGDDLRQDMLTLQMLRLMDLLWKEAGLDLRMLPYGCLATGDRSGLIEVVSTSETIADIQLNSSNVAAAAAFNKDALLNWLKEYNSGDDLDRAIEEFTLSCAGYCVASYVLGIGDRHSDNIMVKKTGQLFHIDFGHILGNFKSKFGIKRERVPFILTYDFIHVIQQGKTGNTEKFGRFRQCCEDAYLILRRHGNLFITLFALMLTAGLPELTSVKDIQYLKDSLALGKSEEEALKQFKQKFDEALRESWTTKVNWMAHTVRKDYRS

Data set [3] in a line: Apparent permeability of the compound across human Caco2 cells. The class given is ADME, cell-based. To be noted: Caco-2.
Data set [4] is described as follows: Drug metabolism in human liver microsomes. The class given is ADME, Microsome. To be noted: read-out: Drug metabolism.
Data set [5] addresses T1, Phosphatidylinositol 4,5-bisphosphate 3-kinase catalytic subunit beta isoform. As to the kind of experiment: Inhibition of human PI3Kbeta-mediated Akt phosphorylation at Ser473 residue expressed in PTEN-deficient human PC3 cells by chemiluminescence assay. The class given is cell-based, PC-3.
The target in data set [6] is Phosphatidylinositol 4,5-bisphosphate 3-kinase catalytic subunit gamma isoform (Homo sapiens, UniProt P48736). Kind of data set: Inhibition of N-terminus poly-His tagged human PI3Kgamma expressed in baculovirus infected insect sf9 cells using PI(4,5)P2 as substrate preincubated with compound for 15 mins measured after 10 mins by HTRF assay.
Chain of Phosphatidylinositol 4,5-bisphosphate 3-kinase catalytic subunit gamma isoform (P48736 whole entry, canonical isoform): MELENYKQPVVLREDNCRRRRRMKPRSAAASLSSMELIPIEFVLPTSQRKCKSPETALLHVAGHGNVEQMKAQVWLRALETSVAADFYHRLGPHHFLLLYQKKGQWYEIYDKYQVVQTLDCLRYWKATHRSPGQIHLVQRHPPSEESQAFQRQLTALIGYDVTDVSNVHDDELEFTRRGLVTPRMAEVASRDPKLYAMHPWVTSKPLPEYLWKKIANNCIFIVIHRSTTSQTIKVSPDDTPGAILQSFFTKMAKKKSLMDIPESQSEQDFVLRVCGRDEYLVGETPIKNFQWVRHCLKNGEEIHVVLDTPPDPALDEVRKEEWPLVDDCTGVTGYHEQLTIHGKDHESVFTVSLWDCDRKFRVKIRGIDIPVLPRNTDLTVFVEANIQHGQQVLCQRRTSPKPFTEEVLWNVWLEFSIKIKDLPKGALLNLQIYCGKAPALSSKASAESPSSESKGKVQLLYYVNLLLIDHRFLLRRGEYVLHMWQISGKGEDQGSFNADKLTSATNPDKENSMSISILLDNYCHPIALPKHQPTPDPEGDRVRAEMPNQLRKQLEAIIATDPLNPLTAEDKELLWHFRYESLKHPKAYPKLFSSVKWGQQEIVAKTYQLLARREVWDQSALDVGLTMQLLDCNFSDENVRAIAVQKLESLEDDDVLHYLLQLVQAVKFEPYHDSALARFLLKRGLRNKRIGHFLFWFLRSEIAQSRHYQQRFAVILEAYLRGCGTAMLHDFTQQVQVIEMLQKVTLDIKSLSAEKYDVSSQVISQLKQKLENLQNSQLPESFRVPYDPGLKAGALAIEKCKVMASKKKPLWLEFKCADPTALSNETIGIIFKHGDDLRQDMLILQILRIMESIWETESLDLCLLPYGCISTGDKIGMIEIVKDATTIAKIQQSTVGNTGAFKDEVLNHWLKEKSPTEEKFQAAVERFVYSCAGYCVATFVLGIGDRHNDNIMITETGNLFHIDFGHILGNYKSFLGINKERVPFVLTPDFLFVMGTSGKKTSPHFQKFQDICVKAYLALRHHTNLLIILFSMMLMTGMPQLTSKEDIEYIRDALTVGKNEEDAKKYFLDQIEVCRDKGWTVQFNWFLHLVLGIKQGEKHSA
In the next data set the target is Cytochrome P450 3A4 (Homo sapiens, UniProt P08684). As to the kind of experiment: Inhibition of human recombinant CPY3A4.
Chain of Cytochrome P450 3A4 (P08684 whole entry): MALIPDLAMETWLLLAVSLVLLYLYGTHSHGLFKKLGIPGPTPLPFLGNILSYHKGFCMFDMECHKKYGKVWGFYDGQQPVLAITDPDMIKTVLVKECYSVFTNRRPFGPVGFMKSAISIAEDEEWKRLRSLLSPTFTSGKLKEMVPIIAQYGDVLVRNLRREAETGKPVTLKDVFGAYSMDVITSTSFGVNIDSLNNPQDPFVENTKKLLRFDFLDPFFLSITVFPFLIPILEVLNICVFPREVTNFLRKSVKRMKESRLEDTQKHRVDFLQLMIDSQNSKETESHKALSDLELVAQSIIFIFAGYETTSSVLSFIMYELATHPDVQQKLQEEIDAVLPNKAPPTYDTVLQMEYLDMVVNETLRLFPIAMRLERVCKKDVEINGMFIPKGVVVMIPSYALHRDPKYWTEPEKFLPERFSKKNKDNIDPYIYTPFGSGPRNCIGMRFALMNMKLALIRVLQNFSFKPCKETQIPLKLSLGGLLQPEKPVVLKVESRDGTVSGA
Data set [7] in a line: Thermodynamic solubility of the compound in phosphate buffer at pH 7.4 after 16 hrs by HPLC analysis. The class given is physicochemical. To be noted: read-out: Therm_solubility.
For data set [8], the target named is T2, Phosphatidylinositol 4,5-bisphosphate 3-kinase catalytic subunit delta isoform (Homo sapiens, UniProt O00329).
T2 sequence (O00329 whole entry): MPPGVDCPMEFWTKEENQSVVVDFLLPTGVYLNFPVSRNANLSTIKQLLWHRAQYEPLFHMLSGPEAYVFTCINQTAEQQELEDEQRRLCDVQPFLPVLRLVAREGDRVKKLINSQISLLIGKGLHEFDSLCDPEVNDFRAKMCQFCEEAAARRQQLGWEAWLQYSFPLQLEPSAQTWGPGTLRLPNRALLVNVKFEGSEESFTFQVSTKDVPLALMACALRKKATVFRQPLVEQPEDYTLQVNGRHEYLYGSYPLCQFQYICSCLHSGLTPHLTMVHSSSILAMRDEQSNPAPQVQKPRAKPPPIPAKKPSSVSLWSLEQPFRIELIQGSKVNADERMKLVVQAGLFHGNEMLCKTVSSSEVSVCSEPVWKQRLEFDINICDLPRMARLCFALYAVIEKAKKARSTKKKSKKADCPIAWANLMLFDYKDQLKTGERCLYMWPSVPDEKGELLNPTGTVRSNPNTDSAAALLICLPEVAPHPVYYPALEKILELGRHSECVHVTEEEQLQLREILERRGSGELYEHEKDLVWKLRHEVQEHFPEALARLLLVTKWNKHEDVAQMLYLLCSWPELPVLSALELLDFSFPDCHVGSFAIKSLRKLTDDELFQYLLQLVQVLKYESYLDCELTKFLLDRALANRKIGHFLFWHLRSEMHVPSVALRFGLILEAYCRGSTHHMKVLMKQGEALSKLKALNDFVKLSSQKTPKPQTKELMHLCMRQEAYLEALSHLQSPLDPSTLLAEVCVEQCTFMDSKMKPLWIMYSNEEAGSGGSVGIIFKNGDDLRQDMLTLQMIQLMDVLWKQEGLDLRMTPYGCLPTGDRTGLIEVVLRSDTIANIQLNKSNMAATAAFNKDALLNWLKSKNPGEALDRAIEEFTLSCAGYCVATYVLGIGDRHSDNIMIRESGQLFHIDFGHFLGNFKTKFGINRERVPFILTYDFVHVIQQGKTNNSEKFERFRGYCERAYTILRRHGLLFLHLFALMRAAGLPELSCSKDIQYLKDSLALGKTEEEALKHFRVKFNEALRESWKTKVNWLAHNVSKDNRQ
As to the kind of experiment: Inhibition of poly-His tagged human PI3Kdelta expressed in baculovirus infected insect sf9 cells coexpressing p85alpha using PI(4,5)P2 as substrate preincubated with compound for 15 mins measured after 10 mins by HTRF assay.

Data set [9] deals with Phosphatidylinositol 4,5-bisphosphate 3-kinase catalytic subunit alpha isoform (Homo sapiens, UniProt P42336). Kind of data set: Inhibition of N-terminus poly-His tagged human PI3Kalpha expressed in baculovirus infected insect sf9 cells coexpressing p85alpha using PI(4,5)P2 as substrate preincubated with compound for 15 mins measured after 10 mins by HTRF assay.
Chain of Phosphatidylinositol 4,5-bisphosphate 3-kinase catalytic subunit alpha isoform (P42336 whole entry, canonical isoform): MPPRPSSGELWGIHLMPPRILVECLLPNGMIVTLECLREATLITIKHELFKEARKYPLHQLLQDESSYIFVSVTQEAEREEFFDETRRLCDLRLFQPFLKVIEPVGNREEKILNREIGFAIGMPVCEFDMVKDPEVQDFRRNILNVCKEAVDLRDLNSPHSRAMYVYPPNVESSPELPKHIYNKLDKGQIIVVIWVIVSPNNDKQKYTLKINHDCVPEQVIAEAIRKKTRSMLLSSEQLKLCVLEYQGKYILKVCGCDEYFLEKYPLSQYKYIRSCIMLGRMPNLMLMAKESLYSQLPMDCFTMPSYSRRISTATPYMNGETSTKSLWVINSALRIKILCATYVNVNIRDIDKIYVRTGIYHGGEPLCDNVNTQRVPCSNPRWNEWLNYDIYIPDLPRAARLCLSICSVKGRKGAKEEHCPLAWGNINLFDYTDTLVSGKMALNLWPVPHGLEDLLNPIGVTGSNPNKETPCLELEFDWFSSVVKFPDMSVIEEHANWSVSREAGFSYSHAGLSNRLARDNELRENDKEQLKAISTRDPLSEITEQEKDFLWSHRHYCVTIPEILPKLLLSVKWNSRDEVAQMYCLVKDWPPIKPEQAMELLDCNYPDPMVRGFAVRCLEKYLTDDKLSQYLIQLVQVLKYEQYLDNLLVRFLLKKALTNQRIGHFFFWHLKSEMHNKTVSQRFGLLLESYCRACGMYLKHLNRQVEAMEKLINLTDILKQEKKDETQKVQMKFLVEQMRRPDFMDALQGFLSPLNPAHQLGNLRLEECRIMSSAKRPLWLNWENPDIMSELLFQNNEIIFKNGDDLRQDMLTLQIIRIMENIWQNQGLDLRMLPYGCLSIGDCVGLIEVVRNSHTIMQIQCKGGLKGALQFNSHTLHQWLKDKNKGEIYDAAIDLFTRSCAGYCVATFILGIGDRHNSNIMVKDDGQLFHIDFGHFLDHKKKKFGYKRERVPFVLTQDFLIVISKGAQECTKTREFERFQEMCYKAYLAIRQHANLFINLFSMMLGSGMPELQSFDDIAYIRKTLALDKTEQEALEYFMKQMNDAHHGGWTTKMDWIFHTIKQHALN
Data set [10] addresses Serine/threonine-protein kinase mTOR (Homo sapiens, UniProt P42345). As to the kind of experiment: Inhibition of mTOR.

`Cn1c(Cc2nc(N3CCOCC3)cc(=O)[nH]2)nc2cc(F)ccc21`: the results for the metabolised in data set [1] and in [4] were 20% and 39%, respectively. Besides, the negative-log IC50 (pIC50) in data set [2] was 7.09; in data set [5], 7.80; in data set [6], less than 5.00; at Cytochrome P450 3A4 it was less than 4.40; in data set [8], 6.07; in [9], less than 5.00. Moreover, the negative-log IC50 (pIC50) in data set [10] is less than 5.00. The Papp in [3] is 3.1 ×10⁻⁶ cm/s. Further, the solubility thermodynamic at 16 h in data set [7] is 3 µM (≈ 1.03 µg/mL).

Consider `O=c1cc(N2CCOCC2)nc(Cc2nc3cc(Br)ccc3[nH]2)[nH]1`, for which the metabolised in data set [1] came to 27%; in [4] it was 75%. For the same compound, the negative-log IC50 (pIC50) was 7.04 in [2]; 7.07 in [5]; less than 5.00 in [6]; less than 4.40 on Cytochrome P450 3A4; 6.35 in data set [8]; 5.26 in data set [9]. Further, the pIC50 in data set [10] is less than 5.00. Also, in data set [7], the solubility thermodynamic at 16 h was found to be 3 µM (≈ 1.17 µg/mL).

Turning to `O=c1cc(N2CCOCC2)nc(Cc2nc3ccc(Cl)cc3[nH]2)[nH]1`, the metabolised was determined as 35% in data set [1] and 78% in data set [4]. Besides, the pIC50 was 7.00 in data set [2]; 7.20 in [5]; less than 5.00 in [6]; less than 4.40 on Cytochrome P450 3A4; 6.61 in data set [8]; 5.25 in data set [9]. For the same compound, in [10], the pIC50 was less than 5.00. The solubility thermodynamic at 16 h in [7] came out at 3 µM (≈ 1.04 µg/mL).

Turning to `CCn1c(Cc2nc(N3CCOCC3)cc(=O)[nH]2)nc2ccccc21`, the values for the metabolised in data set [1] and in data set [4] were 48% and 60%, respectively. The pIC50 in data set [2] is 7.14; in data set [5] it was 7.59; in data set [6], 5.08; on Cytochrome P450 3A4 it was less than 4.40; in data set [8], 6.65; in data set [9], 6.00. Moreover, the negative logarithm of the IC50 (pIC50) in data set [10] is less than 5.00. Further, the apparent permeability (Papp) in data set [3] came out at 0.5 ×10⁻⁶ cm/s. The solubility thermodynamic at 16 h in data set [7] is 221 µM (≈ 75 µg/mL).

Regarding `O=c1cc(N2CCOCC2)nc(Cc2nc3ccccc3n2-c2ccccc2)[nH]1`, the metabolised was 100% in data set [1] and 98% in data set [4]. The negative logarithm of the IC50 (pIC50) is 7.12 in data set [2]; 8.10 in data set [5]; less than 5.00 in [6]; less than 4.40 on Cytochrome P450 3A4; 7.44 in [8]; 5.17 in data set [9]. Besides, in [10], the pIC50 is less than 5.00. In [3], the Papp amounted to 4.4 ×10⁻⁶ cm/s. Besides, in data set [7], the solubility thermodynamic at 16 h came to 397 µM (≈ 154 µg/mL).

As for `Cn1c(Cc2nc(N3CCOCC3)cc(=O)[nH]2)nc2c(-c3ccccc3)cccc21`, the metabolised came to 40% in [1] and 41% in data set [4]. In addition, the negative logarithm of the IC50 (pIC50) in [2] is 7.24; in data set [5], 7.59; in [6] it was less than 5.00; at Cytochrome P450 3A4 it was less than 4.40; in data set [8] it was 6.56; in [9], 6.50. The pIC50 in [10] is less than 5.00. In data set [3], the apparent permeability coefficient (Papp) came out at 11.4 ×10⁻⁶ cm/s.

Take `O=c1cc(N2CCOCC2)nc(Cc2nc3c(-c4ccccc4)cccc3o2)[nH]1`: the metabolised in data set [1] is 26%; in data set [4], 40%. The pIC50 in data set [2] was 7.72; in [5], 7.89; in [6] it was less than 5.00; in [8], 6.43; in data set [9], 5.11; in [10], less than 5.00. In addition, the Papp in [3] is 31 ×10⁻⁶ cm/s. Besides, in [7], the solubility thermodynamic at 16 h came to 3 µM (≈ 1.17 µg/mL).

For the compound `O=c1cc(N2CCOCC2)nc(Cc2nc3ccccc3o2)[nH]1`, the metabolised is 7% in [1] and 41% in data set [4]. In addition, the pIC50 in data set [2] was 7.09; in [5], 7.21; in [6], less than 5.00; on Cytochrome P450 3A4 it was less than 4.40; in data set [8], 6.11; in data set [9], less than 5.00. In data set [10], this compound had a negative-log IC50 (pIC50) of less than 5.00. Also, the Papp in data set [3] came to 19.9 ×10⁻⁶ cm/s. In data set [7], the solubility thermodynamic at 16 h amounted to 160 µM (≈ 50 µg/mL).
